Reference: PMC4577729, “7-(Pyrazol-4-yl)-3H-imidazo[4,5-b]pyridine-based derivatives for kinase inhibition: Co-crystallisation studies with Aurora-A reveal distinct differences in the orientation of the pyrazole N1-substituent” (Bioorganic & Medicinal Chemistry Letters, 2015)

Experiments:
[1] = target: CAMKKb (Homo sapiens, UniProt Q96RR4); test: Kinase selectivity profiling; type: biochemical; conditions: 1 µM, assay duplicates
How it was run: (§1)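 Each compound was tested at a single concentration of 1 µM within a broad panel of 102 or 105 protein kinases run by an external profiling centre.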

[2] = target: EPH-A2 (Homo sapiens, UniProt P29317); test: Kinase selectivity profiling; type: biochemical; conditions: 1 µM, assay duplicates
Sequence of EPH-A2 (P29317 24-976): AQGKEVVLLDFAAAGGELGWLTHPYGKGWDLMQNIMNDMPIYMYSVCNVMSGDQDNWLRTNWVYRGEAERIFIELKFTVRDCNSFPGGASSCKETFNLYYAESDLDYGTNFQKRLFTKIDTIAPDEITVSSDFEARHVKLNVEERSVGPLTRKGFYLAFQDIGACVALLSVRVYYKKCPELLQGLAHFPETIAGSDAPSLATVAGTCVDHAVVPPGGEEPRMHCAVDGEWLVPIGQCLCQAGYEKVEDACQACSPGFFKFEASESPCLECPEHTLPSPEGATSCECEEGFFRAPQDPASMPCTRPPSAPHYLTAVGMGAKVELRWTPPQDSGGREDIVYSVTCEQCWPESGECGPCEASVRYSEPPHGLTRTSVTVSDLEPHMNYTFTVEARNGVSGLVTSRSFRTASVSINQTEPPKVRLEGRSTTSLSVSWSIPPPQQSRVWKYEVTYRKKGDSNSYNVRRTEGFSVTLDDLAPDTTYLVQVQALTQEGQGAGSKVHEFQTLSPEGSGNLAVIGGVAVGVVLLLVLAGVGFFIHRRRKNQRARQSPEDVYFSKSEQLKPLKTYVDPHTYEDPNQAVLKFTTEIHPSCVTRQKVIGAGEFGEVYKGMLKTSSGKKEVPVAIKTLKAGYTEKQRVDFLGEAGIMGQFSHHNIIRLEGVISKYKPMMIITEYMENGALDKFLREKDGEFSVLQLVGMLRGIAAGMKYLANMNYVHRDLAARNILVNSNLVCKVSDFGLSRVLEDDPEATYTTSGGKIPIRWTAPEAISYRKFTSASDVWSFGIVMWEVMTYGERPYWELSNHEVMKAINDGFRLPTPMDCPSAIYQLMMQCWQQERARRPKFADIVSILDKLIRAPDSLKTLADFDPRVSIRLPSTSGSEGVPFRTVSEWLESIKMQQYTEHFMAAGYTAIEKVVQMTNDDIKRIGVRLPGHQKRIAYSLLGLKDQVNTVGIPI
How it was run: as §1

[3] = target: EPH-B4 (Homo sapiens, UniProt P54760); test: Kinase selectivity profiling; type: biochemical; conditions: 1 µM, assay duplicates
Sequence of EPH-B4 (P54760 16-987): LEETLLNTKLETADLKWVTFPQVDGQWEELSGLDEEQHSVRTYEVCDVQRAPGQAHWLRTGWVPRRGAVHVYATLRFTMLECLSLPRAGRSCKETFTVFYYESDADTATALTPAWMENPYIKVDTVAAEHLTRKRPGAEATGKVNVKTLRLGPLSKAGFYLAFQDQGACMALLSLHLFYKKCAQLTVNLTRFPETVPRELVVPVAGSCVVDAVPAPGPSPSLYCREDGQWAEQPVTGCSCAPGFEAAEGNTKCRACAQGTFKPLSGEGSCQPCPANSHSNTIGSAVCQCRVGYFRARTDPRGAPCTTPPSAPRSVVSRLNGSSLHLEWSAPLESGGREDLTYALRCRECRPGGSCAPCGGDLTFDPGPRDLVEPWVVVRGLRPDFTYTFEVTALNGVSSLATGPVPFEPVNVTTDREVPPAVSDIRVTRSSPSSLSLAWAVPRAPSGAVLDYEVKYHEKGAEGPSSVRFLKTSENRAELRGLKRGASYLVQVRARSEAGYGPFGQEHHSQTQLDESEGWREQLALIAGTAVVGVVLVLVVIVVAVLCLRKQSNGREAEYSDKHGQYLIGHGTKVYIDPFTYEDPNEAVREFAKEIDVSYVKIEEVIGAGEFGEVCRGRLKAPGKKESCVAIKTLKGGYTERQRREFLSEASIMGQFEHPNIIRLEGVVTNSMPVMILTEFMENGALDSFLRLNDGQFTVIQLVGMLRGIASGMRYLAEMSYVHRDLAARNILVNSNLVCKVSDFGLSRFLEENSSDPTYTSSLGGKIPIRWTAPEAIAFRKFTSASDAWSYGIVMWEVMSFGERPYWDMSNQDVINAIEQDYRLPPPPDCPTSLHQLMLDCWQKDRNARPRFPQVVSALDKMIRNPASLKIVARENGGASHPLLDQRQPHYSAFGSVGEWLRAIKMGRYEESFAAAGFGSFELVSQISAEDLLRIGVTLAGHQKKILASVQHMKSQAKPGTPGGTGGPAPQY
How it was run: as §1

[4] = target: T1, Aurora B (Homo sapiens, UniProt Q96GD4); test: Kinase selectivity profiling; type: biochemical; conditions: 1 µM, assay duplicates
T1 sequence (Q96GD4 whole entry): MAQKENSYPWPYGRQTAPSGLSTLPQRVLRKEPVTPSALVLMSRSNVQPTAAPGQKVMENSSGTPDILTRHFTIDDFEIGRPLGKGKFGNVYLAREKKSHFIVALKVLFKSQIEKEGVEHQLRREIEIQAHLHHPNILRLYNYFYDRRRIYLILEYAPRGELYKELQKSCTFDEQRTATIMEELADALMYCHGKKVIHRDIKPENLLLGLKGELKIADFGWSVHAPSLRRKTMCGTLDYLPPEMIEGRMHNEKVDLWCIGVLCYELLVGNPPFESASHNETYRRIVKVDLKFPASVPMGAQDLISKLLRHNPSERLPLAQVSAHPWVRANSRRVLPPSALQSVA
How it was run: as §1

[5] = target: MNK2 (Homo sapiens, UniProt Q9HBH9); test: Kinase selectivity profiling; type: biochemical; conditions: 1 µM, assay duplicates
Sequence of MNK2 (Q9HBH9 whole entry): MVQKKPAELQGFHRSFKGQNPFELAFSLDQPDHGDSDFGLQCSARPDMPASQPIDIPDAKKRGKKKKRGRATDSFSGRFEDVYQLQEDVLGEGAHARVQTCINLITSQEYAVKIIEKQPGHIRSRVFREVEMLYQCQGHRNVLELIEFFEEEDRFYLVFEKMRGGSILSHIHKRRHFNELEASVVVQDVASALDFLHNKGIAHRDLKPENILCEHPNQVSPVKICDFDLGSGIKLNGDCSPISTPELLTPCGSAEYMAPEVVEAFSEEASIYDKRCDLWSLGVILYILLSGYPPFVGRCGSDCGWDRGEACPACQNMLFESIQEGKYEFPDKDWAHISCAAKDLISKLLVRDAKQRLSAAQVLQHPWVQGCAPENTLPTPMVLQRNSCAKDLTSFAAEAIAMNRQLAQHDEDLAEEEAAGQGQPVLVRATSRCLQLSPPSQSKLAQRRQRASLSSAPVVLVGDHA
How it was run: as §1

[6] = target: PIM1 (Homo sapiens, UniProt P11309); test: Kinase selectivity profiling; type: biochemical; conditions: 1 µM, assay duplicates
Sequence of PIM1 (P11309 whole entry): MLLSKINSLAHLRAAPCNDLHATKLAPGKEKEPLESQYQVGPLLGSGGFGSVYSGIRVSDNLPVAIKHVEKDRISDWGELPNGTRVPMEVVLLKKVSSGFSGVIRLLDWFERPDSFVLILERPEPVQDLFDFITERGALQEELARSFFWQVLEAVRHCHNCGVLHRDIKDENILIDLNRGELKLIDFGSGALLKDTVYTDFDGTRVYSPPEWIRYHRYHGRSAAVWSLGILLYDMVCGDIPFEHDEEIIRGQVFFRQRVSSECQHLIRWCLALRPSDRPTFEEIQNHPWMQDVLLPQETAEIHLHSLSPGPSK
How it was run: as §1

[7] = target: PIM3 (Homo sapiens, UniProt Q86V86); test: Kinase selectivity profiling; type: biochemical; conditions: 1 µM, assay duplicates
How it was run: as §1

[8] = target: EPH-B2 (Homo sapiens, UniProt P29323); test: Kinase selectivity profiling; type: biochemical; conditions: 1 µM, assay duplicates
Sequence of EPH-B2 (P29323 19-1055): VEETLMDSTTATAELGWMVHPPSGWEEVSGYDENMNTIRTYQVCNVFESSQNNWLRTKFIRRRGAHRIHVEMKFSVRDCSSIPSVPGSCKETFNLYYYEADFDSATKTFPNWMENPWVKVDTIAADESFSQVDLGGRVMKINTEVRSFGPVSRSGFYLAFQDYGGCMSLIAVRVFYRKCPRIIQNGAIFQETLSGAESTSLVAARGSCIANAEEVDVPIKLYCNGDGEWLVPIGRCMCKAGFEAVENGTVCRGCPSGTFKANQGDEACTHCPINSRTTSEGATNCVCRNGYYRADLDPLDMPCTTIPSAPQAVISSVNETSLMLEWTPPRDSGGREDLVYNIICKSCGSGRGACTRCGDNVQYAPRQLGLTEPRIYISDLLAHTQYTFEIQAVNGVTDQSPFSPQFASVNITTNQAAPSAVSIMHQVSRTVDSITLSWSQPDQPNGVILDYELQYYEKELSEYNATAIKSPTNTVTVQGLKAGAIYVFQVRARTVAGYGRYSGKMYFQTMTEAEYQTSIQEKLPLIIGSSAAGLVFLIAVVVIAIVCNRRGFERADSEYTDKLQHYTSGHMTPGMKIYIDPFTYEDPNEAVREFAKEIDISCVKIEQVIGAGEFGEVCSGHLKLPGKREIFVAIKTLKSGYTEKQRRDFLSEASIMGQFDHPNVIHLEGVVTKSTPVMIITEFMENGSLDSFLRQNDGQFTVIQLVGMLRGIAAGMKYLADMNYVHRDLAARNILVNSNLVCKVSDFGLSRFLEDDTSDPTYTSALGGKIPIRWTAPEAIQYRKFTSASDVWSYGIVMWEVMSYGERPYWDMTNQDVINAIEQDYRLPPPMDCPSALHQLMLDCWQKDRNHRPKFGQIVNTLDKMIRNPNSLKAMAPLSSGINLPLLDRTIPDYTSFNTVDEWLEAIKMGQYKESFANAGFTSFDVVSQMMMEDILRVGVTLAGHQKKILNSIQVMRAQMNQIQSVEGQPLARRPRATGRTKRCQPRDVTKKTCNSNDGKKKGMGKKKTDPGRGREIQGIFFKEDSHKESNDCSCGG
Procedure: (§2) [20] Kinase selectivity profiling for compounds 7a, 7d, 14d and 14g was carried out at the International Centre for Protein Kinase Profiling, Division of Signal Transduction Therapy, University of Dundee.
(§3) Table S2: Kinase selectivity profiling of compounds 14d and 14g in a 105-kinase panel screened at a concentration of 1 µM.

[9] = target: CLK2 (Homo sapiens, UniProt P49760); test: Kinase selectivity profiling; type: biochemical; conditions: 1 µM, assay duplicates
Procedure: as §2, §3

[10] = target: DAPK1 (Homo sapiens, UniProt P53355); test: Kinase selectivity profiling; type: biochemical; conditions: 1 µM, assay duplicates
Procedure: as §2, §3

[11] = Kinetic solubility; type: physicochemical; conditions: phosphate buffer, pH = 6.8
Procedure: (§4) The mouse plasma protein binding for 7a and 7d was determined as 99.48% and >99.9%, respectively. […] In an attempt to improve the aqueous solubility, the Aurora inhibitory potency and kinase selectivity of this sub-series, we explored the introduction of basic substituents such as 1-methylpiperazine and pyrrolidine as well as replacement of the phenyl ring with a more polar heterocycle. […] It was anticipated that the introduction of small substituents on the phenyl ring in 7a would be well tolerated without altering its orientation in the kinase active site. Alternatively, we envisaged that Thr217 in Aurora-A may be accessed via an appropriate pyrazole N1-benzyl derivatisation such as a bulky amido substituent, which would form a favourable hydrogen bond interaction with the side chain hydroxyl of Thr217. Similar approaches were previously applied by us in the design of selective inhibitors of Aurora-A.[12,16]
[23] Solubility measurements were performed by Pharmorphix® Solid State Services, Member of the Sigma–Aldrich Group, Cambridge, UK.

[12] = Mouse plasma protein binding; type: in vitro ADME
Procedure: as §4

[13] = In vivo mouse pharmacokinetic profiling
Procedure: as §4

[14] = Protein binding in microsomal incubations (MLM); type: in vitro ADME, mouse
Procedure: (§5) For a better understanding of the microsomal stability data, the protein binding for 7a, 7d and 7e in microsomal incubations was measured. The percentage of 7a unbound in MLM and HLM was determined as 6.71 and 4.89, respectively. Compounds 7d and 7e were more highly bound: for 7d the percentage unbound was 0.50 in both MLM and HLM and for 7e was 0.16 and 0.10, respectively. […] The potent cell-based activity prompted us to investigate kinome selectivity profiles for this class of compound by screening 7a and 7d in a 102-kinase panel at a concentration of 1 μM.[20] […] The Gini coefficient for compound 3 was reported as 0.719,[12] and the corresponding value for compound 1 is 0.560. To understand the potential for further improvement, we obtained the crystal structure of 7a bound to Aurora-A[22] (Fig. 3, Table S3, Supplementary data). […] Similar to crystal structures of previous compounds 1, 15 and 16 (Figs. 1 and 2; compounds 51 and 40c in Ref. [10], and compound 21a in Ref. [11], respectively) the N-benzyl substituent on the C7-pyrazole is oriented towards the P-loop, making Van der Waals contacts with Val147 and Gly142 (Fig. 3).

[15] = Protein binding in microsomal incubations (HLM); type: in vitro ADME, human
Procedure: as §5

[16] = target: T1, Aurora B; test: Histone H3 phosphorylation at S10 in HeLa cells; type: cell-based; conditions: read-out: p-HH3 IC50 (histone H3 phosphorylation at S10)
Description: (§6) As part of our medicinal chemistry programme to discover selective inhibitors of Aurora-A,[12] we introduced the 1-benzyl-1H-pyrazol-4-yl moiety at C7 of the imidazo[4,5-b]pyridine scaffold to provide 7a (Table 1). We previously reported 1,3-dimethyl-1H-pyrazol-4-yl as a preferred substituent at the C2 position of the imidazo[4,5-b]pyridine scaffold[11] and this moiety was therefore incorporated into the design of 7a and analogues presented in this study. […] This in vitro profile prompted us to investigate this C7-pyrazole substituted imidazo[4,5-b]pyridine subseries in more detail. Firstly, we attempted to increase biochemical potency against Aurora-A, and also to improve microsomal stability.

[17] = target: T2, Aurora A (Homo sapiens, UniProt O14965); test: Aurora-A autophosphorylation at T288 in HeLa cells; type: cell-based; conditions: read-out: p-T288 IC50 (Aurora-A autophosphorylation)
T2 sequence (O14965 1-403): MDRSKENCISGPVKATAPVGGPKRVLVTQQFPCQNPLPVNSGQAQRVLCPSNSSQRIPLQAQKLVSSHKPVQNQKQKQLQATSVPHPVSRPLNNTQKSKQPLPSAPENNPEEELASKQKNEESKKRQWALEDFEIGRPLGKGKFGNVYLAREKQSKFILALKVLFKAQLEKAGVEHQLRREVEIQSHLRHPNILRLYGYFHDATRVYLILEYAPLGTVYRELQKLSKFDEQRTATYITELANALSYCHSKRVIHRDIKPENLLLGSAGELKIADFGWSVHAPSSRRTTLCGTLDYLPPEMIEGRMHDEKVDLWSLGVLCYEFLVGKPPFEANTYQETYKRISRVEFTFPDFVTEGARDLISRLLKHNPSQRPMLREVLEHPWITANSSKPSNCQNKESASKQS
Description: as §6

Sequence of CAMKKb (Q96RR4 whole entry): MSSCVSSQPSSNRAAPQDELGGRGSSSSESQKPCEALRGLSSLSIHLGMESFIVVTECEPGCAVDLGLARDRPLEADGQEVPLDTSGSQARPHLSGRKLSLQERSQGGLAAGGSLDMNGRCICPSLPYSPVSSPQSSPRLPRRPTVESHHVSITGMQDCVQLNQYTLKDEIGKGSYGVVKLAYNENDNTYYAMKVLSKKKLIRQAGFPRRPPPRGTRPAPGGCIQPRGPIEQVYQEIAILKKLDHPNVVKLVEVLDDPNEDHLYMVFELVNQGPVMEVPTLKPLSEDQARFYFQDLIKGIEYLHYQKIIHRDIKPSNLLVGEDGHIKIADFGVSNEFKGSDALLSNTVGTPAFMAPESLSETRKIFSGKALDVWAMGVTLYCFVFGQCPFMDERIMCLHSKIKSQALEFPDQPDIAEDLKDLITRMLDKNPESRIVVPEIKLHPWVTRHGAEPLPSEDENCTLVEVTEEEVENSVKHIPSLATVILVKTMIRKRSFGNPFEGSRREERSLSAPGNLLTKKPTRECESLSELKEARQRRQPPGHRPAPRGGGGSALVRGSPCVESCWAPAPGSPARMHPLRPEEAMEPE

| Compound | CAMKKb % activity remaining [1] | EPH-A2 % activity remaining [2] | EPH-B4 % activity remaining [3] | Aurora B % activity remaining [4] | MNK2 % activity remaining [5] | PIM1 % activity remaining [6] | PIM3 % activity remaining [7] | EPH-B2 % activity remaining [8] | CLK2 % activity remaining [9] | DAPK1 % activity remaining [10] | kinetic solubility [11] | mouse plasma protein binding [12] | oral bioavailability [13] | percentage unbound in MLM [14] | percentage unbound in HLM [15] | IC50 [16] | IC50 [17] |
| --- | --- | --- | --- | --- | --- | --- | --- | --- | --- | --- | --- | --- | --- | --- | --- | --- | --- |
| Cc1cc(Cn2cc(-c3c(Cl)cnc4[nH]c(-c5cn(C)nc5C)nc34)cn2)no1 [Compound 14d] | 42% | 57% | 86% | 8% | 32% | 96% | 55% | 60% | 2% | 24% | – | – | – | – | – | – | – |
| Cc1nn(C)cc1-c1nc2c(-c3cnn(Cc4ccccc4)c3)c(Cl)cnc2[nH]1 [Compound 7a] | 19% | 70% | – | – | 44% | 71% | 45% | – | – | – | < 0.1 µg/mL | 99.48% | 13% | 6.71% | 4.89% | 223 nM | 87 nM |
